No end group written: not given here.
Key:
[1] = MTT assay; estimated
JFH-1 HCVcc = conditions: 12 h
HCVpp (H77) = conditions: 50% cell culture inhibitory concentration, HCVpp entry; mean ± SD

Row | Sequence | 50% cytotoxic concentration relative to IC50 [1] | IC50 (JFH-1 HCVcc) | IC50 (HCVpp (H77))
1 | MANAGLQLLGFILAFLGW [CL58] | ~100 fold | 2 µM | 
2 | GAIVSTALPQWRIYSYAG [CL58.6] |  |  | 23.8 ± 2.1 µM
